Here are results for two molecules from patent US20110306608A1, “COMPOSITIONS AND METHODS FOR TREATING VASCULAR, AUTOIMMUNE AND INFLAMMATORY DISEASES” (priority 2005, published 2011).

Data set [1] is described as follows: Serum mycophenolic acid level by commercial assay in mice fed MMF in chow. The data set is classed as in vivo, mouse. From the text: No MPA was detected in the serum of control mice (data not shown).
Data set [2] relates to endothelial nitric oxide synthase (eNOS) expression. Particulars: in vitro, cholesterol clamped conditions; cited from earlier work.

Molecules are shown by their SMILES.

Regarding `COc1c(C)c2c(c(O)c1C/C=C(\C)CCC(=O)O)C(=O)OC2` [MPA, mycophenolic acid], the “average serum mycophenolic acid (MPA) level” value was 3.65 ± 0.3 mg/L in data set [1] (high-dose group (MMF 100 mg/kg/day in high-fat chow)) and 1.16 ± 0.09 mg/L in data set [1] (low-dose group (MMF 15 mg/kg/day in high-fat chow)).
As for `CC[C@H](C)C(=O)O[C@H]1C[C@@H](C)C=C2C=C[C@H](C)[C@H](CC[C@@H]3C[C@@H](O)CC(=O)O3)[C@H]21` [lovastatin], in data set [2], the “upregulation of eNOS expression” value is “almost fourfold”.
